“Also recorded” adds a separate entry of the source. Each block holds one molecule with its values, some of them ahead of it. Starred links: 1 amine or outer side, 2 acyl side, 3 side chain; linkers in the order of their positions; H or OH if unused. Positions of bridges follow the written chain, without caps; N, C: chain ends. Non-standard residues stand in square brackets, D forms with d. Residues, ends and D or L forms follow the SMILES beside them. Chains are numbered I, II in the order given. Actinocin(9to1) = Cc1c2oc3c(C)ccc(C(=O)[*:1])c3nc-2c(C(=O)[*:2])c(N)c1=O; NMeV = CN[C@H](C(=O)O)C(C)C; Sar = CNCC(=O)O
Legend:
[1] = tested on: FGF-1-NIH 3T3 transfectants; details: agent in the media of cultured cells exposed to heat shock; cited from earlier work
[2] = tested on: NIH 3T3 FGF-1-β-gal:p65 Syn-1 co-transfectants; assay: Effects of pharmacologic inhibitors on heat shock induced release of p40; type: cell-based, murine; details: heat shock 42° C. for 100 min
Protocol: (§1) Stable NIH 3T3 FGF-1:β-gal transfectants were co-transfected with either p65 Syn-1, p65(Δ120-214) or p40 and maintained in Dulbecco's modified Eagle's medium (DMEM, GIBCO-BRL, Grand Island, N.Y.) containing 10% (v/v) bovine calf serum (BCS, Hyclone, Logan, Utah), 1× antibiotic-antimycotic (GIBCO-BRL) and 200 μg/ml G418 (GIBCO-BRL) and 250 μg/ml hygromycin (Boehringer Mannheim, Indianapolis, Ind.) on sterile tissue culture dishes coated with 10 μg/cm^2 human fibronectin prepared from human plasma by affinity adsorption to a column of immobilized type I collagen by methods well known in the art. Confluent monolayers of co-transfectants were rinsed with DMEM containing 4 U/ml heparin (Upjohn, Kalamazoo, Mich.) and subjected to heat shock (42° C. for 100 min) in DMEM containing 4 U/ml heparin and 0.5% BCS as described (Jackson et al., Proc. Nat. Acad. Sci. USA 89:10691, 1992). For each Syn-1 construct, three independent co-transfectant clones were tested.
Following heat shock, conditioned media were collected, filtered using 0.2 μm filters (Millipore, Bedfore, Mass. ) according to the supplier's recommendations, and activated with 0.1% (w/v) dithiothreitol (DTT, Sigma, St. Louis, Mo.) for 2 h at 37° C. (Jackson et al., J. Biol. Chem. 270:33, 1995). Conditioned media were then passed over a column of heparin-Sepharose™ CL-6B (Pharmacia Biotech, Piscataway, N.J.) equilibrated and eluted with 50 mM Tris pH 7.4 containing 10 mM EDTA (TE buffer, TEB). Following TEB washing, the column was eluted with 1.5 M NaCl in TEB and the eluate collected and concentrated using a Centricon™ 10 concentrator (Amicon, Inc., Beverly, Mass.) according to the manufacturer's instructions. Aliquots of the concentrated eluates were analyzed by 10% sodium dodecylsulfate polyacrylamide gel electrophoresis (SDS-PAGE) as described (Jackson et al., J. Biol Chem. 270:33, 1995). Electrophoretically separated samples were further characterized by immunoblot analysis as described (Jackson et al., Proc. Nat. Acad. Sci. USA 89:10691, 1992). […]

[3] = tested on: NIH 3T3 FGF-1 transfectants; assay: Heat shock induced FGF-1 and p40 Syn-1 release by FGF-1 transfectants, immunoblot of conditioned media; type: cell-based, murine
Protocol: Chemical derivatives of amlexanox were tested for their effects on FGF-1 and p40 Syn-1 release by NIH 3T3 FGF-1 transfectants in response to heat shock. Media were conditioned by three 150 mm dishes of NIH3T3 cells stably transfected with FGF-1α (residues 21-154) after exposure to 41.5° C. for 90 min with or without amlexanox or the indicated amlexanox derivative. The media were collected and resolved by 12.5% acrylamide SDS-PAGE under reducing conditions followed by immunoblot analysis for FGF-1 as described herein.
(FIG. 19: Lane 1: media derived from NIH3T3 cell FGF-1 transfectants following heat shock in the absence of any drug; Lanes 2 through 4: media derived from NIH3T3 cell FGF-1 transfectants following heat shock in the presence of 1×10^−6 M, 1×10^−5 M, 1×10^−4 M, A673 (amlexanox) respectively; Lanes 5 through 7: media derived from NIH3T3 cell FGF-1 transfectants following heat shock in the presence of 1×10^−6 M, 1×10^−5 M, 1×10^−4 M AA617 respectively; Lanes 8 through 10: media derived from NIH3T3 cell FGF-1 transfectants following heat shock in the presence of 1×10^−6 M, 1×10^−5 M, 1×10^−4 M AA648 respectively; Lanes 11 through 13: media derived from NIH3T3 cell FGF-1 transfectants following heat shock in the presence of 1×10^−6 M, 1×10^−5 M, 1×10^−4 M, AA777 respectively; Lane 14: media derived from NIH3T3 cell FGF-1 transfectants maintained at 37° C. for 90 min; Lane 15, 50 ng of recombinant human FGF-1α. The structures of amlexanox (AA673) and its derivatives are also shown.

[4] = tested on: 3T3 cell line transfected with a chimeric FGF-1 construct having a functional signal sequence; assay: Secretion by 3T3 cell line transfected with chimeric FGF-1 construct having a functional signal sequence (classical ER-Golgi pathway); type: cell-based; details: not shown
Description: In a concentration dependent fashion, amlexanox inhibited the release of both FGF-1-β-gal and Syn-1 from NIH 3T3 FGF-1-β-gal:p65 Syn-1 co-transfectants in response to heat shock (FIG. 17). […] A 3T3 cell line transfected with a chimeric FGF-1 construct having a functional signal sequence for secretion via the classical ER-Golgi protein secretory pathway (Forough et al., J. Biol. Chem. 268:2960, 1993) was unaffected by amlexanox by several phenotypic criteria, including secretory activity (not shown).

[5] = tested on: NIH 3T3 FGF-1-β-gal:p65 Syn-1 co-transfectants; assay: Heat shock induced release of FGF-1-β-gal and Syn-1 from co-transfectants, immunoblot of heparin binding fraction of conditioned medium; type: cell-based, murine; details: heat shock 41.5° C. for 90 min; concentration dependent; FIG. 17
Protocol: as §1, with “Confluent monolayers of co-transfectants were rinsed with DMEM containing 4 U/ml heparin (Upjohn, Kalamazoo, Mich.) and subjected to heat shock (42° C. for 100 min) in DMEM containing 4 U/ml heparin and 0.5% BCS as described (Jackson et al., Proc.” left out, “For each Syn-1 construct, three independent co-transfectant clones were tested.” left out
Following heat shock, conditioned media were collected, filtered using 0.2 μm filters (Millipore, Bedfore, Mass. ) according to the supplier's recommendations, and activated with 0.1% (w/v) dithiothreitol (DTT, Sigma, St. Louis, Mo.) for 2 h at 37° C. […] Aliquots of the concentrated eluates were analyzed by 10% sodium dodecylsulfate polyacrylamide gel electrophoresis (SDS-PAGE) as described (Jackson et al., J. Biol Chem. 270:33, 1995). […]
In this Example, the effects of members of the amlexanox family of pharmacologic agents known to bind to S100A13 (Oyama et al., Biochem. Biophys. Res. Commun. 240:341, 1997) were evaluated in cell based assay systems for export of FGF1:Syn-1 complexes in vitro. […]

[6] = tested on: NIH-3T3 FGF-1-β-gal:p40 Syn-1 co-transfectants; assay: p40 Syn-1 release from p40 Syn-1 co-transfectants at 37° C. or after heat shock, Syn-1 immunoblot; type: cell-based, murine; details: FIG. 18
Protocol: Amlexanox was also tested for an effect on the heat shock response of NIH-3T3 FGF-1-β-gal:p40 Syn-1 co-transfectants described above in Example 11. Media were conditioned by two 150 mm dishes of NIH3T3 cells stably co-transfected with FGF-1:β-Gal and rat p40 Syn-1 after exposure to temperature stress (41.5° C., 90 min) with or without treatment. The media were collected and resolved by 10% acrylamide SDS-PAGE under reducing conditions followed by immunoblot analysis for Syn-1 as described herein and in the cited references.
(FIG. 18: Lane 1: media derived from NIH3T3 cell FGF-1:β-Gal and p40 Syn1 co-transfectants maintained at 37° C. for 90 min. Lane 2: media derived from NIH3T3 cell FGF-1:β-gal and p40 Syn-1 co-transfectants following heat shock. Lanes 3 and 4: media derived from NIH3T3 cell FGF-1:β-gal and p40 Syn-1 co-transfectants maintained at 37° C. in the presence of 5×10^−5M, and […] AA673 (amlexanox) respectively. Lane 5: media derived from NIH3T3 cell FGF-1:β-gal and p40 Syn-1 co-transfectants following heat shock in the presence of 3×10^−4M, AA673. Lane 6: 50 ng of recombinant rat p40 Syn-1.)

[7] = biological target: the molecule itself; assay: Cu2+ oxidation, non-reduced SDS-PAGE
Protocol: Purified FGF-1 and p40 Syn-1 were incubated with, and without, Cu²⁺ for 10 min. and resolved on two non-reduced SDS-PAGE gels (A and B), as described by Maciag et al., Recent Prog. Horm. Res. 49:105-123 (1993). The systems were identical except gel 5B was immunoblotted with FGF-1 antibody, whereas gel 5A was not.
However, when FGF-1 and p40 Syn-1 were added together, non-reduced SDS-PAGE was able to resolve a unique component with an apparent Mᵣ˜66,000 (FIG. 6A). To determine whether this band contained FGF-1, this experiment was repeated and analyzed by FGF-1 immunoblot analysis.

[8] = 41.5° C. for 90 min, 1×10^−6 M, 1×10^−5 M, 1×10^−4 M, FIG. 19

Molecule: Cc1c2oc3c(C)ccc(C(=O)N[C@@H]4C(=O)N[C@H](C(C)C)C(=O)N5CCC[C@H]5C(=O)N(C)CC(=O)N(C)[C@@H](C(C)C)C(=O)O[C@@H]4C)c3nc-2c(C(=O)N[C@@H]2C(=O)N[C@H](C(C)C)C(=O)N3CCC[C@H]3C(=O)N(C)CC(=O)N(C)[C@@H](C(C)C)C(=O)O[C@@H]2C)c(N)c1=O [actinomycin D] (I: T[dV]P[Sar][NMeV] / II: T[dV]P[Sar][NMeV]; ester I:1-I:C, II:1-II:C; linker I:N-II:N via Actinocin(9to1))
- release of latent FGF-1 [1]: inhibited
- heat shock induced release of p40 [2]: inhibited

- release of FGF-1-β-gal in response to heat shock [5]: inhibited; also recorded: inhibition
- release of Syn-1 in response to heat shock [5]: inhibited; also recorded: inhibition
Molecule: CC(C)c1ccc2oc3nc(N)c(C(=O)O)cc3c(=O)c2c1 [amlexanox]
- FGF-1 release in response to temperature stress [3, 8]: inhibition
- p40 Syn-1 release in response to temperature stress [3, 8]: inhibition
- FGF-1 release in response to heat shock ([3]; NIH 3T3 cell line stably transfected with FGF-1 instead of FGF-1-β-gal, not shown): inhibited FGF-1 release
- effect on phenotypic criteria, including secretory activity [4]: unaffected
- constitutive release of p40 Syn-1 ([6]; 37° C., 5×10^−5M and 3×10^−1M AA673): no effect
- enhanced p40 export in response to heat shock ([6]; heat shock 41.5° C., 90 min, 3×10^−4M AA673): did inhibit

Molecule: C[C@H]1CCC/C=C/[C@@H]2C[C@H](O)C[C@H]2[C@H](O)/C=C/C(=O)O1 [brefeldin A]
- heat shock induced release of p40 [2]: unaffected

Molecule: C[C@@H]1C[C@@H]([C@H](O)CC2CC(=O)NC(=O)C2)C(=O)[C@@H](C)C1 [cycloheximide]
- release of latent FGF-1 [1]: inhibited
- heat shock induced release of p40 [2]: inhibited

B1: recombinant human p40 Syn-1 (other, UniProt P21579 104-422, looked up)
chain: MKDVKDLGKTMKDQALKDDDAETGLTDGEEKEEPKEEEKLGKLQYSLDYDFQNNQLLVGIIQAAELPALDMGGTSDPYVKVFLLPDKKKKFETKVHRKTLNPVFNEQFTFKVPYSELGGKTLVMAVYDFDRFSKHDIIGEFKVPMNTVDFGHVTEEWRDLQSAEKEEQEKLGDICFSLRYVPTAGKLTVVILEAKNLKKMDVGGLSDPYVKIHLMQNGKRLKKKKTTIKKNTLNPYYNESFSFEVPFEQIQKVQVVVTVLDYDKIGKNDAIGKVFVGYNSTGAELRHWSDMLANPRRPIAQWHTLQVEEEVDAMLAVKK
notes: domain: p40 form of Syn-1; also called p45; p40/45
- binding result [7]: no binding

From patent US20040071787A1, “Pharmacologic, therapeutic and diagnostic regulation of FGF-1 export” (Maine Medical Center Research Institute, priority 1996, published 2004)
